Laboratory results reported in ChEMBL document CHEMBL6103604, “Novel Bicyclic Amines as CDK2 Inhibitors for Treating Metastatic Breast Cancer or Metastatic Lung Cancer” (ACS Med Chem Lett, 2025).

Biological target: Cyclin-dependent kinase 2/cyclin E1 (Homo sapiens, UniProt P24941)
Experiment: Inhibition of N-terminal GST-tagged wild-type full-length human CDK2 (1 to 298 residues)/FLAG-tagged human Cyclin E1 (1 to 410 residues) extracted from baculovirus infected Sf21 cells using ULight-labeled eIF4E-binding protein-1 as substrate incubated for 60 mins in the presence of ATP by HTRF assay

Compound: C[C@@H](Oc1c(-c2cn[nH]c2)ccn2nc(NC3CCOCC3)nc12)C(F)F
- IC50: ≤ 10 nM

Compound: C[C@@H](Oc1c(-c2cn[nH]c2)ccn2nc(NC3CCOCC3)nc12)C(F)(F)F
- IC50: ≤ 10 nM

Compound: CC(C)Oc1c(-c2cn[nH]c2)ccn2nc(NC3CCOCC3)nc12
- IC50: ≤ 10 nM

Compound: CC(C)Oc1c(-c2cn[nH]c2)ncn2nc(NC3CCOCC3)nc12
- IC50: ≤ 10 nM

Compound: C[C@@H](Oc1c(-c2cn[nH]c2)ncn2nc(NC3CCOCC3)nc12)C(F)F
- IC50: ≤ 10 nM

Compound: C[C@@H](Oc1c(-c2cn[nH]c2)ncn2nc(NC3CCOCC3)nc12)C(F)(F)F
- IC50: ≤ 10 nM
